Experimental data published in patent publication US9358276B2, “Methods of diagnosing and treating small intestinal bacterial overgrowth (SIBO) and SIBO-related conditions” (Cedars-Sinai Medical Center, priority 1999, dated 2016).
Marks after values point to notes of the source that are not given here.

Columns and labels:
[1] = system: SIBO-related hyperalgesia; test: Treatment of SIBO-related hyperalgesia (cases); type: in vivo, human
Procedure: Two adult female subjects with IBS required additional pharmacologic manipulations to treat their SIBO-related hyperalgesia. In the first case, SIBO was eradicated by antibiotic treatment. However, the subject complained of persistent feelings of rectal distension, consistent with residual hyperalgesia related to SIBO. The subjected was then administered Colpermin (peppermint oil) capsules and Elavil (5 mg taken at night) that alleviated their SIBO-related hyperalgesic symptoms, presumably by reducing intestinal wall tension and decreasing mechanoreceptor activation.
The second subject with a diagnosis of IBS was also found to have SIBO, as detected by LBHT. Their SIBO was eradicated by a combined treatment with antibiotic, intestinal lavage with Go-Lytely, and cisapride (10 mg tid) to increase their abnormally low phase III interdigestive motility. After eradication of SIBO, this subject similarly complained of persistent SIBO-related hyperalgesic symptoms of the bowel.

[2] = system: rapid upper gut transit and diarrhea; test: Continued pre-meal oleate/oleic acid treatment: diarrhea, stool output, symptoms; type: in vivo, human
Excerpt: Continuing oleic acid treatment at home was offered to Aresponders≅ (i.e., patients who experienced a greater than 100% increase in baseline transit time with 3.2 g oleic acid). Of the 36 responders out of the original 45 patients, 18 provided records of stool volume and frequency on- and off-treatment for comparison. The inconvenient and unappealing nature of stool collection and measurement were the primary reasons reported by responders who chose not to participate in stool collection. After completing a set of three preliminary breath hydrogen tests, each participating responder was asked to refrain from taking oleic acid for two days in order to measure off-treatment stool output for a 24-hour period. Patients were issued a stool pattern record form and a stool collection container with graduated volume markings to record the frequency and volume of bowel movements. After two days without oleic acid, each patient took 3.2 g of oleic acid mixed with 25 mL of Ensure emulsion three times a day, 30 minutes before breakfast, lunch and dinner. After taking oleic acid for two days, patients recorded stool output for another 24-hour period. With this oleic acid emulsion treatment, stool frequency decreased from 6.9±0.8 to 5.4±0.9 bowel movements per 24-hour period (p<0.05), and stool volume decreased from 1829.0±368.6 to 1322.5±256.9 per 24-hour period (p<0.05).
The patient was a person with a history of adolescent-onset, persistent diarrhea. […] They presented with complaints of excessive gas, postprandial bloating, diarrhea and urgency, and 3 to 7 liquid bowel movements per day. Their upper gut transit times were (min) 30 (0 g oleic acid), 117 (1.6 g oleic acid) and 101 (3.2 g oleic acid).

upper gut transit [3] = test: Upper gut transit time by lactulose breath hydrogen test after oleate or oleic acid; type: in vivo, human; conditions: 4 grams of oleic acid
upper gut transit [4] = test: as above; type: in vivo, human; conditions: for upper gut transit time: case, diarrhea-predominant IBS
Excerpt: In a preliminary study, five patients with persistent diarrhea for 3 to 22 months, (one each due to vagal denervation, ileal resection for Crohn's disease, and vagotomy and antrectomy, and two due to idiopathic causes) were studied. […] This test relies on the metabolism of certain carbohydrate materials (e.g. lactulose) by the microbial flora within the caecum. By generating gas which can be detected in the expired air, it is possible to make some estimation about the initial arrival of the administered material within the colon.
Each patient received orally in random order, 0, 1.6 or 3.2 g of sodium oleate in 25 mL Ensure (Ross), followed by 100 mL water. Thirty minutes after each dose of oleate, patients received 10 g lactulose orally, followed by 25 mL water. Breath samples were collected in commercially available breath testing bags (Quintron, Menomonee Falls, Wis.) every 10-15 minutes, and the hydrogen content of the samples was measured using a breath analyzer (Microlyzer Model 12, Quintron Instruments, Menomonee Falls, Wis.), calibrated against gas samples of known hydrogen concentration. With a syringe, a 40-mL sample of the expired breath was withdrawn from the collection bag and analyzed immediately for hydrogen concentration (ppm). The hydrogen concentration value from each sample was plotted against time. Upper gut transit time was defined as the time in minutes from ingestion of lactulose (t0) until a rise of H2 of >10 ppm. Data were further analyzed using 1-way repeated measures analysis of variance (ANOVA)(See Table 4).
The effect of an active lipid on transit time was determined in 8 normal human subjects (1 male and 7 females with a mean age of 35±2.6 years [SE]) and 45 patients (20 males and 25 females with a mean age of 49.1±2.5 [SE], age range from 18 to 90 years) with chronic diarrhea (i.e., continuous diarrhea for more than two months) associated with a wide variety of diagnoses and conditions (e.g., Crohn's disease; irritable bowel syndrome; short bowel syndrome; Indiana pouch; AIDS; ulcerative colitis; vagotomy; antrectomy; ileostomy; partial and complete colectomy; colon cancer; diabetes mellitus type 1; pancreatic insufficiency; radiation enteropathy; esophagectomy/gastric pull-up; total and subtotal gastrectomy; gastrojejunostomy), made by referring gastroenterologists. The method was the same as described above, except oleic acid (Penta Manufacturing, Livingston, N.J.) replaced sodium oleate in 50 mL of Ensure emulsion. All subjects refrained from taking antibiotics for at least two weeks before each testing date and during stool measurement periods. Patients were also instructed to refrain from anti-diarrheal drugs, laxatives, somatostatin analogues or anticholinergics for at least 48 hours before each test. In both the normal and patient groups, there was a significant slowing of upper gut transit time in response to oleic acid, as summarized in Table 5 below (p<0.001).

ileal brake = conditions: rats, subcutaneous administration; Brown et al. 1993; cited from earlier work
intestinal transit = test: Intestinal transit in multi-fistulated dogs, cumulative % recovery of 99mTc-DTPA; type: in vivo, dog
Excerpt: The experiments described below are based on a previously described chronic multi-fistulated dog model, employing surgically fistulated male or female mongrel dogs weighing about 25 kg each. (Lin, H. C. et al., Inhibition of gastric emptying by glucose depends on length of intestine exposed to nutrient, Am. J. Physiol. 256:G404-G411 [1989]). The small intestines of the dogs were each about 300 cm long from the pylorus to the ileal-cecal valve. The duodenal fistula was situated 15 cm from the pylorus; the mid-gut fistula was situated 160 cm from the pylorus. Occluding Foley catheters (balloon catheters that are inflated to produce a water-tight seal with the lumenal surface) were placed into the distal limb of a duodenal fistula and a mid-gut fistula, fat or other test agents were administered lumenally to the thus compartmentalized Aproximal≅ section of the gut, i.e., between the fistulas, or to the compartmentalized Adistal≅ section of the gut, i.e., beyond the mid-gut fistula. Perfusate was pumped into a test section through the catheter at a rate of 2 mL/minute. Test agents were administered along with buffer perfusate, but some test agents were administered intravenously, where specifically noted.
Intestinal transit measurements were made by tracking the movement of a liquid marker across the approximately 150 cm intestinal test segment by delivering about 20 μCi ^99mTc chelated to diethyltriamine pentaacetic acid (DTPA)(Cunningham, K. M. et al., Use of technicium-99m (V)thiocyanate to measure gastric emptying of fat, J. Nucl. Med. 32:878-881 [1991]) as a bolus into the test segment after 60 minutes of a 90-minute perfusion. The output from the mid-gut fistula was collected every 5 min thereafter for 30 minutes, which period is illustrated in FIGS. 9-23. Using a matched dose of ^99mTc to represent the original radioactivity (Johansson, C., Studies of gastrointestinal interactions, Scand. J. Gastroenterol. 9(Suppl 28):1-60 [1974]; Zierler, K., A simplified explanation of the theory of indicator dilution for measurement of fluid flow and volume and other distributive phenomena, Bull. John Hopkins 103:199-217 [1958]), the radioactivity delivered into the animal as well as the radioactivity of the recovered fistula output were all measured using a gamma well counter. After correcting all counts to time zero, intestinal transit was calculated as the cumulative percent recovery of the delivered ^99mTc-DTPA. This method has been well validated over the years and appreciated for its advantage of minimal inadvertent marker loss. […] There was a very high level of marker recovery, with 90% of the marker recovered by 30 minutes and 98% of the marker recovered by 45 minutes.

SIBO [5] = test: Case: autism with bowel symptoms, Augmentin; type: in vivo, human; conditions: one patient
SIBO [6] = test: Comparison of antibiotic regimes for eradicating SIBO, follow-up lactulose breath hydrogen test (LBHT); type: in vivo, human; conditions: follow-up LBHT
Procedure: Subjects were tested after an overnight fast. […] Each breath sample was then analyzed for hydrogen content with a gas chromatograph (Quintron Model DP, Quintron Instrument Co., Division of E.F. Brewer Co, Menomonee Falls, Wis. 53051), standardized using a QuinGas standard as instructed by the manufacturer. Hydrogen peaks were plotted before and after an antimicrobial treatment regimen for comparison. The normal range for the second hydrogen peak was 0 to 20 ppm. Subjects referred to the Cedars-Sinai GI Motility Program for a lactulose breath hydrogen test (LBHT) to assess SIBO were entered into a database. Those that tested positive for SIBO were given antibiotic treatment by their referring physician and in some cases, returned for a follow-up LBHT to assess eradication of SIBO. During the follow-up LBHT, subjects were asked which antibiotic they were given to treat their SIBO. The eradication rate of each antibiotic was evaluated. Of the 771 subjects in the database, 561 (73%) tested positive for SIBO. […] (See Table 1 below). […] None of the commonly used antibiotics was universally successful in eradicating overgrowth.

CN(C)CCC=C1c2ccccc2CCc2ccccc21 [Elavil, amitriptyline]
SIBO-related hyperalgesic symptoms ([1]; first subject, Colpermin capsules and Elavil (5 mg at night) together): alleviated

COc1cc(N)c(Cl)cc1C(=O)NC1CCN(CCCOc2ccc(F)cc2)CC1OC (stereo not drawn) [cisapride]
eradication of SIBO ([1]; second subject, combined antibiotic, lavage with Go-Lytely and cisapride (10 mg tid)): eradicated

CCCCCCCC/C=C\CCCCCCCC(=O)O [oleic acid]
stool frequency, bowel movements per 24-hour period ([2]; 18 responders, 3.2 g in 25 mL Ensure three times a day, off-treatment 6.9±0.8): 5.4±0.9
stool volume per 24-hour period ([2]; 18 responders, on treatment, off-treatment 1829.0±368.6): 1322.5±256.9
symptoms of gaseousness, bloating and rectal urgency ([2]; case, diarrhea-predominant IBS): complete relief
bowel frequency ([2]; case, diarrhea-predominant IBS, continuing treatment): single, solid bowel movement per day
adverse effect reported ([2]; only adverse effect reported by any patient): slight and transient burning sensation in the mouth or throat
mean transit time (upper gut transit [3]; IBD patients (n=18)): 114.6 ± 16.0 min
mean transit time (upper gut transit [3]; normal subjects (n=5)): 136.0 ± 15.4 min
responders (greater than 100% increase in baseline transit time) (upper gut transit [4]; 3.2 g oleic acid, out of the original 45 patients): 36
Transit time (mean ± SE) (upper gut transit [4]; Normal subjects (8), 1.6 g oleic acid in 50 mL Ensure): 116 ± 11.1 min
Transit time (mean ± SE) (upper gut transit [4]; Normal subjects (8), 3.2 g oleic acid): 140 ± 11.5 min
Transit time (mean ± SE) (upper gut transit [4]; Patients with chronic diarrhea (45), 1.6 g oleic acid): 57.2 ± 4.5 min
Transit time (mean ± SE) (upper gut transit [4]; Patients with chronic diarrhea (45), 3.2 g oleic acid): 83.3 ± 5.2 min
upper gut transit time (upper gut transit [4]; 1.6 g oleic acid): 117 min
upper gut transit time (upper gut transit [4]; 3.2 g oleic acid): 101 min

Cc1nccn1CC1CCc2c(c3ccccc3n2C)C1=O (stereo not drawn) [ondansetron]
ileal brake induced by ileal infusion of lipid (ileal brake): abolished the ileal brake
intestinal transit of a baked bean meal (ileal brake): delayed
Transit Across Proximal Gut (Cumulative % Marker Recovered) (intestinal transit; Buffer + NE + Ond perfused lumenally 0.7 mg/kg/h): 63.0 ± 4.4^b %
marker recovery (intestinal transit; IV PYY + ondansetron 0.7 mg/kg/h in proximal gut): 78.3±4.8%
marker recovery (intestinal transit; IV PYY + ondansetron in distal gut): 12.9±12.9%
marker recovery (intestinal transit; distal gut 5-HT + ondansetron 0.7 mg/kg bolus in distal gut): 79.5±2.4%
marker recovery (intestinal transit; distal gut 5-HT + ondansetron 0.7 mg/kg bolus in proximal gut): 73.8±9.5%
marker recovery (intestinal transit; ileal brake + 6.25 mg ondansetron bolus, proximal gut): 35.4%
marker recovery (intestinal transit; ileal brake + 12.5 mg ondansetron bolus, proximal gut): 55.8%
marker recovery (intestinal transit; ileal brake + 25 mg ondansetron bolus, proximal gut): 77.6%
marker recovery (intestinal transit; ileal brake + intravenous ondansetron 0.15 mg/kg/1.5 h, n=2): 13±2.0%
marker recovery (intestinal transit; ileal brake + lumenal ondansetron 0.7 mg/kg/h in proximal gut, n=2): 78±2.4%
marker recovery (intestinal transit; ileal brake + ondansetron in distal gut, n=4): 22.8±2.6%
marker recovery (intestinal transit; ileal brake + ondansetron in proximal gut, n=4): 68.5±2.7%
marker recovery (intestinal transit; intravenous norepinephrine + ondansetron 0.7 mg/kg/h in proximal gut): 63.4%
marker recovery (intestinal transit; lumenal buffer + lumenal ondansetron, Buffer-NS 96.0±4.0%): 57.9±15.9%
marker recovery (intestinal transit; lumenal oleate + lumenal ondansetron 0.7 mg/kg bolus, proximal gut): 73.7±10.6%

Augmentin
concentration and behavior (SIBO [5]): some positive concentration and behavioral changes
bowel habits (SIBO [5]; 500 mg twice a day for ten days): substantial improvement
% Patients with SIBO Eradicated (SIBO [6]): 50%
